Assay results published in ChEMBL document CHEMBL3886450, “Tricyclic indole derivatives useful endothelial lipase inhibitors” (2015).

Target: T1, Endothelial lipase (Homo sapiens, UniProt Q9Y5X9)
T1 sequence (Q9Y5X9 whole entry): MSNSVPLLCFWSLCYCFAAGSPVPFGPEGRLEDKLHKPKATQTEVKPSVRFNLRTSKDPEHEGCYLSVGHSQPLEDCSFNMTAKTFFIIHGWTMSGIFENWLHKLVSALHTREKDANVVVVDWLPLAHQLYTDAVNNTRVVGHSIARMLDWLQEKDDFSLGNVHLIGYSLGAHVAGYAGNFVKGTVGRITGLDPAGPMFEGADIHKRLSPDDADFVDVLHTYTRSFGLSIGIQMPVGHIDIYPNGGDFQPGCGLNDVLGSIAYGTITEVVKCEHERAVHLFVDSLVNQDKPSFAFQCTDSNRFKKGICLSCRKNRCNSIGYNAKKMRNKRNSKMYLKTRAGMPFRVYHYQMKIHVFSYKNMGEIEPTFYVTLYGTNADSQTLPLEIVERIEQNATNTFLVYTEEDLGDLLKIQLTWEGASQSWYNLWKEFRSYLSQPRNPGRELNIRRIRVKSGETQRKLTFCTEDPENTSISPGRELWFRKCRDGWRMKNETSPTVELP
Assay: Endothelial Lipase Assay: To assay for cell surface lipase activity, cells expressing human endothelial lipase (EL) or LPL were plated in CellBIND® 384-well plates (Corning, Lowell, Mass.) in 25 μL serum free medium at a density of 2000 cells/well. After 18-24 hours incubation at 37° C., the medium was removed and replaced with 15 μL assay buffer [Hank's Buffered Saline Solution with 25 mM HEPES pH 7.2] and 15 μL PLA1 substrate for a final concentration of 10 μM using a Multidrop reagent dispenser. Fluorescence signal was monitored for 30 min at 37° C. on a Safire II plate reader in kinetic mode (60 cycles, kinetic interval: 30 seconds) with an excitation wavelength of 490 nm and an emission wavelength of 515 nm.
Type: cell-based

SMILES	IC50
CC(CC(=O)N1CCn2c(CCc3ccccc3)c(C(F)(F)F)c3cccc(c32)C1)C(F)(F)F (configuration not stated)	101 nM
NS(=O)(=O)N1CCn2c(CCc3ccccc3)c(C(F)(F)F)c3cccc(c32)C1	68 nM
